According to PMC7997578, “Design, Synthesis, Dynamic Docking, Biochemical Characterization, and in Vivo Pharmacokinetics Studies of Novel Topoisomerase II Poisons with Promising Antiproliferative Activity” (Journal of Medicinal Chemistry, 2020):
Where two headings read alike, the source gives them in different places.

What was measured:
A549 cells = assay: cell viability MTT assay, A549; type: cell-based, human; conditions: mean ± SD of two experiments, read-out: A549 antiproliferative activity IC50
Experimental: The antiproliferative activity of all compounds was evaluated in (i) DU145, an androgen-independent prostate cancer cell line; (ii) HeLa, a cervical cancer cell line; and (iii) A549, a lung adenocarcinoma cell line (Table 1). […] Undoubtedly, this preliminary cytotoxicity data will need further characterization, also in relation to the in vitro activity of these compounds.
Human cancer cell lines A549 (lung adenocarcinoma, ATCC CCL-185), DU-145 (androgen-independent prostate cancer, ATCC HTB-81), and HeLa (cervical carcinoma, ATCC CCL-2) were obtained from ATCC. Cells were routinely grown in minimal essential medium containing Eagle’s salts and L-glutamine supplemented with 10% heat-inactivated FBS in a humidified atmosphere of 5% CO2 at 37 °C. To assess the antiproliferative activity of the compounds, cells were seeded at a density of 2500 cells/well (HeLa) or 5000 cells/well (A549, DU-145) in 96-well plates, and cell viability was measured using the MTT assay as described previously.[39] Values are reported as the mean ± SD of two independent experiments.

[1] = in vivo pharmacokinetics in mice; conditions: mouse
Experimental: Finally, on the basis of the overall results and drug-like profile, 3f was selected as our lead for in vivo pharmacokinetics studies, as a preparatory characterization for future analyses of in vivo drug efficacy in animal models of cancer. We tested two different routes of administration: (i) intravenous (iv) injection at a concentration of 3 mg/kg (n = 3 for each time point) and oral (po) treatment at a dose of 10 mg/kg (n = 3 for each time point). Despite the relatively low thermodynamic solubility of 3f (30 μM in PBS), the compound reached the target concentration in the formulation used for the in vivo experiments. The mean plasma concentration versus time profile of 3f is shown in Figure 5, and the corresponding pharmacokinetic parameters are summarized in the inserted table.
Male C57B6/J male mice, 8 weeks old, 25-30 g were used (Charles River). All procedures were performed in accordance with the Ethical Guidelines of European Communities Council (Directive 2010/63/EU of 22 September 2010) and accepted by the Italian Ministry of Health. All efforts were made to minimize animal suffering and to use the minimal number of animals required to produce reliable results, according to the “3Rs concept”. Animals were group-housed in ventilated cages (n=5 mice per cage) and had free access to food and water. They were maintained under a 12-hour light/dark cycle (lights on at 8:00 am) at controlled temperature (21°C ± 1°C) and relative humi dity […]
4. Pharm acok inet ic studies
Compound 3f was administered orally (P.O.) and intravenously (I.V.) to C57B6/J male mice at 10 and 3 mg/Kg dose. Vehicle was: PEG400/Tween 80/Saline solution at 10/10/80 % in volume respectively. 3f was first dissolved in 100% PEG, then diluted to the final target concentration in this vehicle. The target concentration of 3f in the dosing solution was checked and confirmed by LC-MS .
The dosing solutions were diluted differently in the vehicle. The different dilutions were further diluted 4-fold with CH3CN prior to analysis. A reference standard was spiked in the vehicle to prepare a calibration curve over a 0.1 -10µM range. The ca librators were also diluted 4 -fold with CH3CN as for the dosing solution dilutions. The dosing solutions and calibrators were analys ed under the sam e conditions as for the plasma samples described below.
Three animals per dose were treated. Blood samples at 0, 15, 30, 60, 120, 240, and 480 minutes after administration were collected for PO arm. Blood samples at 0, 5, 15, 30, 60, 120 and 240 minutes after administration were collected for IV arm. Plasma was separated from blood by centrifugation for 15 minutes at 3500 rpm a 4°C, collected in a eppendorf tube and frozen ( -80°C). Brain samples were homogenized in Phosphate buffered saline a nd were then split in two aliquots kept at -80 °C until analysis. An aliquot was used for compound brain level evaluations, following the same procedure described below for plasma samples. The second aliquot was kept for protein content evaluation by bicinchoninic acid assay (BC A). Control animals treated with vehicle only w ere also included in the experimental protocol.
Plasma samples were centrifuged at 21.100g for 15min. at 4°C. A 50µl aliquot was transferred into a 96-Deep Well plate and 150µl of extraction so lution was added. The extraction solution was consisting of cold CH3CN spiked with 200n M of internal standard. The plate was centrifuged at 3270g for 15min. at 4°C. 80µl of supernatant was then transferred into a 96 -Deep Well plate and 80µl of H2O was added. A reference standard of the compound was spiked in naïve mouse plasma to prepare a calibration curve over a 1nM – 10µM range. Three quality control samples were prepared by spiking the compound in blank mouse plasma to the final concentrations of 20, 200 and 2000nM.
Calibrators and quality controls were extracted wit h the same e xtraction solution used for the plasma samples. The samples w ere analysed on a W aters ACQUITY UPLC/MS TQD system (Water s Inc. […]

O=C(Nc1cccc(OC(F)(F)F)c1)c1c(O)n(-c2ccccc2)c(=S)n(-c2ccccc2)c1=O [3f, 6-Hydroxy-4-oxo-1,3-diphenyl-2-thioxo-N-(3-(trifluoromethoxy)phenyl)-1,2,3,4-tetrahydropyrimidine-5-carboxamide]
IC50 (A549 cells; A549 lung adenocarcinoma cells): 3.1 ± 0.1 µM | IC50 (A549 cells; Homo sapiens, A549, A549 lung adenocarcinoma cells): < 5 µM | concentration at 2 h ([1]; male, C57B6/J, plasma, iv 3 mg/kg, 2 h, read-out: plasma concentration after 2 h): 551 ng/mL | bioavailability ([1]; male, C57B6/J, plasma, po 10 mg/kg vs iv 3 mg/kg, based on AUC from t = 0 to 240 min, read-out: bioavailability F): 8% | AUCplasma ([1]; iv 3 mg/kg): 295528 ng·min/mL | CL ([1]; iv 3 mg/kg): 4 mL/min/kg | Clp ([1]; iv 3 mg/kg): 0.004 L min^–1 kg^–1 | Tmax ([1]; iv 3 mg/kg): 0.083 h | Vd ([1]; iv 3 mg/kg): 3 L/kg | t½ (elimination phase) ([1]; iv 3 mg/kg): 0.5 h | tolerability during PK studies ([1]; iv 3 mg/kg or po 10 mg/kg): well tolerated | treatment-related clinical signs ([1]; iv 3 mg/kg or po 10 mg/kg): no treatment-related clinical signs were observed | Cmax ([1]; iv 3 mg/kg, plasma): 7366 ng/mL | AUCplasma ([1]; po 10 mg/kg): 77385 ng·min/mL | Tmax ([1]; po 10 mg/kg): 2 h | Vd ([1]; po 10 mg/kg): 18 L/kg | plasma concentration reached at 1 h and stably maintained for at least 6 h ([1]; po 10 mg/kg): about 400 ng/mL | time of maximum concentration ([1]; po 10 mg/kg): approximately 2 h | t½ (elimination phase) ([1]; po 10 mg/kg): 3.17 h | Cmax ([1]; po 10 mg/kg, plasma): 428 ng/mL
